# According to ChEMBL document CHEMBL4014354, “2'-Chloro,2'-fluoro Ribonucleotide Prodrugs with Potent Pan-genotypic Activity against Hepatitis C Virus Replication in Culture” (J Med Chem, 2017):
# pEC50, pIC50: −log10 of the molar value.
# Experiments:
# [1] = Cytotoxicity against human PBMC assessed as inhibition of cell proliferation after 5 days by MTT assay; type: cell-based
# Hepatitis C virus [2] = experiment: Antiviral activity against HCV genotype 1b harboring wild type NS5B infected in human HuH7 cells assessed as inhibition of viral RNA replication after 5 days by RT-PCR method; type: functional, cell-based, Hepacivirus hominis; details: Huh-7, 120 h
# [3] = Cytotoxicity against human CEM cells assessed as inhibition of cell proliferation after 4 days by MTT assay; type: cell-based, CCRF-CEM
# [4] = Cytotoxicity against human HuH7 cells assessed as inhibition of cell proliferation after 4 days by MTS assay; type: cell-based, Huh-7
# [5] = Cytotoxicity against African green monkey Vero cells assessed as inhibition of cell proliferation after 3 days by MTT assay; type: cell-based; details: chlorocebus sabaeus
# [6] = system: cytochrome c oxidase subunit 2 DNA (mitochondrial DNA) levels; experiment: in vitro; details: human, HepG2 cells
# Hepatitis C virus [7] = experiment: Antiviral activity against HCV genotype 1a infected in human HuH7 cells assessed as inhibition of viral RNA replication after 96 hrs by RT-PCR method; type: functional, cell-based, Hepacivirus hominis; details: subtype 1a, Huh-7, 96 h
# [8] = system: cytochrome c oxidase subunit 2 DNA (mitochondrial DNA) levels; experiment: Mitochondrial toxicity in human HepG2 cells assessed as inhibition of cytochrome c oxidase subunit 2 DNA levels at 50 uM measured on day 14 by RT-PCR method relative to nuclear beta-actin DNA levels; type: cell-based
# Hepatitis C virus [9] = experiment: Antiviral activity against HCV genotype 3a infected in human HuH7 cells assessed as inhibition of viral RNA replication after 96 hrs by RT-PCR method; type: functional, cell-based, Hepacivirus hominis; details: Huh-7, 96 h
# nuclear DNA levels [10] = experiment: in vitro; details: human, HepG2 cells
# Hepatitis C virus [11] = experiment: Antiviral activity against HCV genotype 2a/k infected in human HuH7 cells assessed as inhibition of viral RNA replication after 96 hrs by RT-PCR method; type: functional, cell-based, Hepacivirus hominis; details: Huh-7, 96 h
# Hepatitis C virus [12] = experiment: Antiviral activity against HCV genotype 1b infected in human HuH7 cells assessed as inhibition of viral RNA replication after 96 hrs by RT-PCR method; type: functional, cell-based, Hepacivirus hominis; details: Huh-7, 96 h
# HepG2 [13] = experiment: Mitochondrial toxicity in human HepG2 cells assessed as lactic acid production at 50 uM measured on day 14 by spectrophotometric method relative to control; type: cell-based; details: hepg2, 50 µM
# [14] = system: cytochrome c oxidase subunit 2 DNA (mitochondrial DNA) levels; experiment: Mitochondrial toxicity in human HepG2 cells assessed as inhibition of cytochrome c oxidase subunit 2 DNA levels measured on day 14 by RT-PCR method; type: cell-based
# HepG2 [15] = experiment: Mitochondrial toxicity in human HepG2 cells assessed as cytochrome c oxidase subunit 2 DNA levels at 50 uM measured on day 14 by RT-PCR method relative to nuclear beta-actin DNA levels; type: cell-based; details: hepg2, 50 µM
# Hepatitis C virus [16] = experiment: Antiviral activity against HCV genotype 4 infected in human HuH7 cells assessed as inhibition of viral RNA replication after 96 hrs by RT-PCR method; type: functional, cell-based, Hepacivirus hominis; details: genotype 4, Huh-7, 96 h
# nuclear DNA levels [17] = experiment: Cytotoxicity against human HepG2 cells assessed as inhibition of nuclear DNA levels at 50 uM measured on day 14 by RT-PCR method relative to nuclear beta-actin DNA levels; type: cell-based; details: read-out: INH
# Hepatitis C virus [18] = experiment: Antiviral activity against HCV genotype 2b infected in human HuH7 cells assessed as inhibition of viral RNA replication after 96 hrs by RT-PCR method; type: functional, cell-based, Hepacivirus hominis; details: Huh-7, 96 h
# HepG2 [19] = experiment: Mitochondrial toxicity in human HepG2 cells assessed as cytochrome c oxidase subunit 2 DNA levels at 10 uM measured on day 14 by RT-PCR method relative to nuclear beta-actin DNA levels; details: hepg2, 10 µM
# HepG2 [20] = experiment: Cytotoxicity against human HepG2 cells assessed as inhibition of nuclear DNA levels measured on day 14 by RT-PCR method; details: HepG2, 336 h
# HepG2 [21] = experiment: Mitochondrial toxicity in human HepG2 cells assessed as lactic acid production at 10 uM measured on day 14 by spectrophotometric method relative to control; type: cell-based; details: hepg2, 10 µM
# [22] = Inhibition of human DNA polymerase gamma using 5' end radiolabeled 24nt DNA/36nt DNA as primer/template after 120 mins by PAGE analysis
# DNA polymerase beta = DNA polymerase beta (Homo sapiens, UniProt P06746); experiment: Inhibition of human DNA polymerase beta using 5' end radiolabeled 24nt DNA/48nt DNA as primer/template after 5 mins by PAGE analysis
# in vitro [23] = details: human, liver microsomes
# Description: Half life in human liver microsomes at 1 uM by LC-MS/MS analysis
# in vitro [24] = details: human, liver microsomes; remark: listed apart in the source
# Description: Clearance in human liver microsomes at 1 uM by LC-MS/MS analysis
# in vitro [25] = details: human, liver microsomes; remark: listed apart in the source
# Description: Metabolic stability in human liver microsomes assessed as parent compound remaining at 1 uM at 60 mins by LC-MS/MS analysis
# [26] = Inhibition of RNA polymerase 2 isolated from human HeLa cell nuclear extract assessed as decrease in incorporation of P32-alpha-CTP after 2 hrs by scintillation counting method; type: cell-free
SMILES,CC50 at 120 h [1] [µM],pEC50 (Hepatitis C virus [2]),EC90 (Hepatitis C virus [2]) [µM],CC50 at 96 h [3] [µM],CC50 at 96 h [4] [µM],CC50 at 72 h [5] [µM],other results
CC(C)OC(=O)[C@H](C)NP(=O)(OC[C@H]1O[C@@H](n2ccc(N)nc2=O)[C@@](F)(Cl)[C@@H]1O)Oc1ccccc1 (some centres undefined),> 100,7.00,0.3,> 100,> 10,> 100,–
Nc1nc2c(ncn2[C@@H]2O[C@H](CO)[C@@H](O)[C@]2(F)Cl)c(=O)[nH]1,> 100,4.72,33,> 100,> 33,> 100,–
Nc1ccn([C@@H]2O[C@H](CO)[C@@H](O)[C@]2(F)Cl)c(=O)n1,12,6.52,0.9,> 100,> 10,8.4,–
CC(C)OC(=O)[C@H](C)NP(=O)(OC[C@H]1O[C@@H](n2cnc3c(=O)[nH]c(N)nc32)[C@@](F)(Cl)[C@@H]1O)Oc1ccccc1 (some centres undefined),> 100,6.52,0.8,> 100,> 10,> 100,–
O=c1ccn([C@@H]2O[C@H](CO)[C@@H](O)[C@]2(F)Cl)c(=O)[nH]1,> 100,< 4.00,> 100,> 100,> 100,> 100,"inhibition at 14 days, 10 µM [6]: < 1%; pIC50 (Hepatitis C virus [7]): < 4.22; inhibition at 14 days, 50 µM [8]: < 1%; pIC50 (Hepatitis C virus [9]): < 4.22; cytotoxicity at 14 days, 10 µM (nuclear DNA levels [10]): 8.8%; pIC50 (Hepatitis C virus [11]): < 4.22; pIC50 (Hepatitis C virus [12]): < 4.22; Activity (HepG2 [13]): 120%; IC50 at 14 days [14]: > 50 µM; Activity (HepG2 [15]): 120%; pIC50 (Hepatitis C virus [16]): < 4.22; cytotoxicity at 14 days, 50 µM (nuclear DNA levels [17]): < 1%; pIC50 (Hepatitis C virus [18]): < 4.22; Activity (HepG2 [19]): 160%; pIC50 (HepG2 [20]): < 4.30; Activity (HepG2 [21]): 85%"
C[C@@]1(O)[C@H](O)[C@@H](CO)O[C@H]1n1ccc(N)nc1=O,> 100,5.77,6.5,> 100,> 10,> 100,–
C[C@@]1(F)[C@H](O)[C@@H](CO)O[C@H]1n1ccc(=O)[nH]c1=O,–,–,–,–,–,–,pIC50 (Hepatitis C virus [7]): < 4.00; pIC50 (Hepatitis C virus [9]): < 4.00; pIC50 (Hepatitis C virus [11]): < 4.00; pIC50 (Hepatitis C virus [12]): < 4.00; pIC50 (Hepatitis C virus [16]): < 4.00; pIC50 (Hepatitis C virus [18]): < 4.00
Cc1cn([C@H]2CC[C@@H](COP(=O)(O)OP(=O)(O)OP(=O)(O)O)O2)c(=O)[nH]c1=O,–,–,–,–,–,–,pIC50 [22]: 4.37; pIC50 (DNA polymerase beta): 4.72
"Nc1ncnc2c1ccn2[C@@H]1O[C@H](CO)C(O)C1(F)Cl (single isomer, unassigned)",–,< 5.00,> 10,–,> 10,–,–
"CC(C)OC(=O)[C@H](C)NP(=O)(OC[C@H]1O[C@@H](n2cnc3c(N)ncnc32)C(F)(Cl)C1O)Oc1ccccc1 (single isomer, unassigned)",84.8,6.22,2.1,36.3,> 33,53.9,–
"Nc1ncnc2c1c(F)cn2[C@@H]1O[C@H](CO)C(O)C1(F)Cl (single isomer, unassigned)",82.6,< 5.00,> 10,19.9,> 10,42.4,–
"Nc1ncnc2c1c(I)cn2[C@@H]1O[C@H](CO)C(O)C1(F)Cl (single isomer, unassigned)",6.6,< 5.00,> 10,7.3,> 10,11.5,–
"CC(C)OC(=O)[C@H](C)NP(=O)(OC[C@H]1O[C@@H](n2ccc3c(N)ncnc32)C(F)(Cl)C1O)Oc1ccccc1 (single isomer, unassigned)",> 100,< 5.00,> 10,69,> 10,> 100,–
"CC(C)OC(=O)[C@H](C)NP(=O)(OC[C@H]1O[C@@H](n2cc(F)c3c(N)ncnc32)C(F)(Cl)C1O)Oc1ccccc1 (single isomer, unassigned)",99.7,< 5.00,> 10,55.3,> 10,60.9,–
"Nc1ncnc2c1ncn2[C@@H]1O[C@H](CO)C(O)C1(F)Cl (single isomer, unassigned)",> 100,< 5.00,> 10,> 100,> 10,> 100,–
"CC(C)OC(=O)[C@H](C)NP(=O)(OC[C@H]1O[C@@H](n2cc(I)c3c(N)ncnc32)C(F)(Cl)C1O)Oc1ccccc1 (single isomer, unassigned)",> 100,< 5.00,> 10,69.3,> 10,> 100,–
O=C(O)Cc1ccccc1Nc1c(Cl)cccc1Cl [DICLOFENAC],–,–,–,–,–,–,"half-life at 1 µM (in vitro [23]): 8.9 min; microsomal CLint at 1 µM (in vitro [24]): 156 µL/min/mg; remaining at 1 h, 1 µM (in vitro [25]): 1.2%"
Nc1ccn([C@@H]2CS[C@H](CO)O2)c(=O)n1 [LAMIVUDINE],–,–,–,–,–,–,IC50 at 14 days [14]: > 10 µM
C[C@]12CC[C@H]3[C@@H](CCC4=CC(=O)CC[C@@]43C)[C@@H]1CC[C@@H]2O [TESTOSTERONE],–,–,–,–,–,–,"half-life at 1 µM (in vitro [23]): 15 min; microsomal CLint at 1 µM (in vitro [24]): 92 µL/min/mg; remaining at 1 h, 1 µM (in vitro [25]): 6.3%"
Nc1ccn([C@H]2CC[C@@H](CO)O2)c(=O)n1 [ZALCITABINE],–,–,–,–,–,–,"inhibition at 14 days, 10 µM [6]: 96%; cytotoxicity at 14 days, 10 µM (nuclear DNA levels [10]): 53%; IC50 at 14 days [14]: < 10 µM; Activity (HepG2 [19]): 9.5%; pIC50 (HepG2 [20]): > 5.00; Activity (HepG2 [21]): 330%"
CC[C@H](C)[C@@H]1NC(=O)CNC(=O)[C@@H]2Cc3c([nH]c4cc(O)ccc34)[S+]([O-])C[C@@H](NC(=O)CNC1=O)C(=O)N[C@@H](CC(N)=O)C(=O)N1C[C@H](O)C[C@H]1C(=O)N[C@@H]([C@@H](C)[C@@H](O)CO)C(=O)N2 (stereo partly drawn) [alpha-Amanitin],–,–,–,–,–,–,pIC50 [26]: 8.60
